Measured values reported in patent US20220033363A1, “HERBICIDALLY ACTIVE SUBSTITUTED PHENYLPYRIMIDINE HYDRAZIDES” (Bayer Aktiengesellschaft, priority 2018, published 2022).

Assays:
Type in all cases: in vivo
[1] = test system: Poa annua; assay: Herbicidal pre-emergence action (Method B) against POAAN; conditions: 504 h, scored visually after about 3 weeks vs untreated controls
Source text: (§1) Method B: Herbicidal Pre-Emergence Action Seeds of mono- and dicotyledonous weed plants are placed in plastic pots in sandy loam soil (doubly sown with one species each of mono- or dicotyledonous weed plants per pot) and covered with soil. The compounds of the invention, formulated in the form of wettable powders (WP) or as emulsion concentrates (EC), are then applied onto the surface of the covering soil as aqueous suspension or emulsion with addition of 0.5% additive at a water application rate equivalent to 600 liters per hectare. After the treatment, the pots are placed in a greenhouse and kept under good growth conditions for the trial plants. After about 3 weeks, the effect of the preparations is scored visually in comparison with untreated controls as percentages. For example, 100% action=the plants have died, 0% action=like control plants.

[2] = test system: Lolium rigidum; assay: Herbicidal pre-emergence action (Method B) against LOLRI; conditions: 504 h, scored visually after about 3 weeks vs untreated controls
Source text: as §1

[3] = test system: harmful plants; assay: Herbicidal post-emergence action (Method A), summary statement; conditions: summary of tables A1-A11
Method: (§2) Method A: Herbicidal Post-Emergence Action Seeds of mono- and dicotyledonous weed plants are placed in plastic pots in sandy loam soil (twin sowing with one species each of mono- or dicotyledonous weed plants per pot), covered with soil and cultivated in a greenhouse under controlled growth conditions. 2 to 3 weeks after sowing, the test plants are treated at the one-leaf stage. The compounds of the invention, formulated in the form of wettable powders (WP) or as emulsion concentrates (EC), are applied to the green parts of the plants as aqueous suspension or emulsion with addition of 0.5% additive at a water application rate equivalent to 600 liters per hectare. After the test plants have been kept in the greenhouse under optimum growth conditions for about 3 weeks, the activity of the preparations is rated visually in comparison to untreated controls. For example, 100% activity=the plants have died, 0% activity=like control plants.

[4] = test system: Matricaria inodora; assay: Herbicidal pre-emergence action (Method B) against MATIN; conditions: Tripleurospermum inodorum, 504 h, scored visually after about 3 weeks vs untreated controls
Source text: as §1

[5] = test system: Stellaria media; assay: Herbicidal pre-emergence action (Method B) against STEME; conditions: 504 h; for pest or weed control at 320 g/ha: dosage 320 g/ha; for pest or weed control at 1280 g/ha: dosage 1280 g/ha
Source text: as §1

[6] = test system: Stellaria media; assay: Herbicidal post-emergence action (Method A) against STEME; conditions: 504 h, rated visually after about 3 weeks vs untreated controls
Method: as §2

[7] = test system: Poa annua; assay: Herbicidal post-emergence action (Method A) against POAAN; conditions: 504 h, rated visually after about 3 weeks vs untreated controls; for pest or weed control at 320 g/ha: read-out: Post-emergence action at 320 g/ha against POANN; for pest or weed control at 1280 g/ha: read-out: Post-emergence action at 1280 g/ha against POANN
Method: as §2

[8] = test system: Echinochloa crus-galli; assay: Herbicidal pre-emergence action (Method B) against ECHCG; conditions: 504 h, scored visually after about 3 weeks vs untreated controls
Source text: as §1

[9] = test system: Amaranthus retroflexus; assay: Herbicidal post-emergence action (Method A) against AMARE; conditions: rated visually after about 3 weeks vs untreated controls
Method: as §2

[10] = test system: Lolium rigidum; assay: Herbicidal post-emergence action (Method A) against LOLRI; conditions: rated visually after about 3 weeks vs untreated controls; for pest or weed control at 1280 g/ha: Lolium rigidum, post-emergence, 504 h
Method: as §2

[11] = test system: Matricaria inodora; assay: Herbicidal post-emergence action (Method A) against MATIN; conditions: rated visually after about 3 weeks vs untreated controls
Method: as §2

[12] = test system: Echinochloa crus-galli; assay: Herbicidal post-emergence action (Method A) against ECHCG; conditions: rated visually after about 3 weeks vs untreated controls; for pest or weed control at 1280 g/ha: Echinochloa crus-galli, post-emergence, 504 h
Method: as §2

[13] = test system: Setaria viridis; assay: Herbicidal pre-emergence action (Method B) against SETVI; conditions: 1280 g/ha, scored visually after about 3 weeks vs untreated controls
Source text: as §1

[14] = test system: Abutilon theophrast; assay: Herbicidal pre-emergence action (Method B) against ABUTH; conditions: 1280 g/ha, scored visually after about 3 weeks vs untreated controls
Source text: as §1

Compound	pest or weed control at 320 g/ha [1] [%]	pest or weed control at 1280 g/ha [1] [%]	pest or weed control at 320 g/ha [2] [%]	pest or weed control at 1280 g/ha [2] [%]	pest or weed control at 1280 g/ha [4] [%]	pest or weed control at 320 g/ha [5] [%]	pest or weed control at 1280 g/ha [5] [%]	pest or weed control at 320 g/ha [6] [%]	pest or weed control at 1280 g/ha [6] [%]	pest or weed control at 320 g/ha [7] [%]	pest or weed control at 1280 g/ha [7] [%]	pest or weed control at 320 g/ha [8] [%]	pest or weed control at 1280 g/ha [8] [%]	Post-emergence action at 1280 g/ha against AMARE [9] [%]	pest or weed control at 1280 g/ha [10] [%]	Post-emergence action at 1280 g/ha against MATIN [11] [%]	pest or weed control at 320 g/ha [4] [%]	Post-emergence action at 320 g/ha against LOLRI [10] [%]	Post-emergence action at 320 g/ha against ECHCG [12] [%]	pest or weed control at 1280 g/ha [12] [%]	further results
CN(N)C(=O)c1nc(C2CC2)ncc1-c1ccccc1Cl [Example I-500, 5-(2-chlorophenyl)-2-cyclopropyl-N-methylpyrimidine-4-carbohydrazide]	100	100	90	100	100	100	100	100	100	100	100	90	100	100	90	90					herbicidal efficacy against harmful plants in the case of post-emergence treatment [3]: good herbicidal efficacy; Post-emergence action at 320 g/ha against MATIN ([11]; 320 g/ha): 90%
CN(C)NC(=O)c1nc(C2CC2)ncc1-c1ccccc1Cl [Example I-501, 5-(2-chlorophenyl)-2-cyclopropyl-N′,N′-dimethylpyrimidine-4-carbohydrazide]	100	100	100	100	100	100	100	100	100	100	100	100	100	100	100	90	100	100	100	100	
O=C(NNc1ccccn1)c1nc(C2CC2)ncc1-c1ccccc1Cl [Example I-510, 5-(2-chlorophenyl)-2-cyclopropyl-N′-(pyridin-2-yl)pyrimidine-4-carbohydrazide]	100	100	100	100	100	100	100	100	100	100	100	100	100	100	90	90	100	90	90	90	Pre-emergence action against SETVI [13]: 90%
CC(=O)N(NC(=O)c1nc(C2CC2)ncc1-c1ccccc1Cl)c1ccccn1 [Example I-513, N′-acetyl-5-(2-chlorophenyl)-2-cyclopropyl-N′-(pyridin-2-yl)pyrimidine-4-carbohydrazide]	100	100		90	100	100	100	100	100	100	100		100		100	90			100	100	
CN(NC(=O)c1nc(C2CC2)ncc1-c1ccccc1Cl)C(=O)OC(C)(C)C [Example I-548, tert-butyl 2-{[5-(2-chlorophenyl)-2-cyclopropylpyrimidin-4-yl]carbonyl}-1-methylhydrazinecarboxylate]	100	100		90		100	100				90	90	100							90	
CCNC(=O)NNC(=O)c1nc(C2CC2)ncc1-c1ccccc1Cl [Example I-552, 2-{[5-(2-chlorophenyl)-2-cyclopropylpyrimidin-4-yl]carbonyl}-N-ethylhydrazinecarboxamide]	100	100	90	90	100	100	100		100	100	100		90		90	90	90	90	90	100	Pre-emergence action against ABUTH [14]: 90%
O=C(NN=C1CCOCC1)c1nc(C2CC2)ncc1-c1ccccc1Cl [Example I-559, 5-(2-chlorophenyl)-2-cyclopropyl-N′-(tetrahydro-4H-pyran-4-ylidene)pyrimidine-4-carbohydrazide]	100	100	100	100	100	100	100	90	100	100	100	90	100		100		100	90	90	90	herbicidal efficacy against harmful plants in the case of post-emergence treatment [3]: good herbicidal efficacy
CCOC(=O)NNC(=O)c1nc(C2CC2)ncc1-c1ccc(F)cc1Cl [Example I-2591, ethyl 2-{[5-(2-chloro-4-fluorophenyl)-2-cyclopropylpyrimidin-4-yl]carbonyl}hydrazinecarboxylate]	100	100		100	90	100	100		100	100	100		100							90	
